# The supplement of paper PMC10307832
# Assays:
# Test in all cases: relative viability (nuclei count vs DMSO), 5 days (fraction); higher = more cells survive
# ALW-II-49-7 + OSI-027 = compound: Cc1ccc(C(=O)Nc2cccc(C(F)(F)F)c2)cc1Nc1cncc(C(N)=O)c1 [ALW-II-49-7] + COc1cccc2cc(-c3nc([C@H]4CC[C@H](C(=O)O)CC4)n4ncnc(N)c34)[nH]c12 [OSI-027] (partner 0.5 µM)
# Procedure, shortened: (§1)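 Relative viability is defined as nuclei in treated wells over nuclei in vehicle wells. Duplicate plates were run and medians reported. Lung cancer cell lines in 1536-well plates were dosed by pin tool one day after seeding, with one drug or with a fixed anchor-drug dose plus five library-drug doses (not always all listed) in √10 steps, and nuclei were counted after 5 days.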
# Dasatinib + AZD7762 = compound: Cc1nc(Nc2ncc(C(=O)Nc3c(C)cccc3Cl)s2)cc(N2CCN(CCO)CC2)n1 [Dasatinib] + NC(=O)Nc1cc(-c2cccc(F)c2)sc1C(=O)N[C@H]1CCCNC1 [AZD7762] (partner 0.2 µM)
# Procedure, shortened: as §1
# ALW-II-49-7 + Decitabine = compound: Cc1ccc(C(=O)Nc2cccc(C(F)(F)F)c2)cc1Nc1cncc(C(N)=O)c1 [ALW-II-49-7] + Nc1ncn([C@H]2C[C@H](O)[C@@H](CO)O2)c(=O)n1 [Decitabine] (partner 2 µM)
# Procedure, shortened: as §1
# Dasatinib + Vorinostat = compound: Cc1nc(Nc2ncc(C(=O)Nc3c(C)cccc3Cl)s2)cc(N2CCN(CCO)CC2)n1 [Dasatinib] + O=C(CCCCCCC(=O)Nc1ccccc1)NO [Vorinostat] (partner 1 µM)
# Procedure, shortened: as §1
Cell Line,relative viability (ALW-II-49-7 + OSI-027; first compound 0.08 µM),relative viability (ALW-II-49-7 + OSI-027; first compound 0.253 µM),relative viability (ALW-II-49-7 + OSI-027; first compound 0.8 µM),relative viability (ALW-II-49-7 + OSI-027; first compound 2.53 µM),relative viability (ALW-II-49-7 + OSI-027; first compound 8 µM),relative viability (Dasatinib + AZD7762; first compound 0.005 µM),relative viability (Dasatinib + AZD7762; first compound 0.01581 µM),relative viability (Dasatinib + AZD7762; first compound 0.05 µM),relative viability (Dasatinib + AZD7762; first compound 0.1581 µM),relative viability (Dasatinib + AZD7762; first compound 0.5 µM),relative viability (ALW-II-49-7 + Decitabine; first compound 0.08 µM),relative viability (ALW-II-49-7 + Decitabine; first compound 0.253 µM),relative viability (ALW-II-49-7 + Decitabine; first compound 0.8 µM),relative viability (ALW-II-49-7 + Decitabine; first compound 2.53 µM),relative viability (ALW-II-49-7 + Decitabine; first compound 8 µM),relative viability (Dasatinib + Vorinostat; first compound 0.005 µM),relative viability (Dasatinib + Vorinostat; first compound 0.01581 µM),relative viability (Dasatinib + Vorinostat; first compound 0.05 µM),relative viability (Dasatinib + Vorinostat; first compound 0.1581 µM),relative viability (Dasatinib + Vorinostat; first compound 0.5 µM)
NCI-H727,0.688,0.611,0.429,0.527,0.511,0.547,0.587,0.595,0.375,0.35,0.775,0.884,0.738,0.824,0.703,1.18,0.97,0.841,0.871,0.264
PC-3 [JPC-3],0.655,0.733,0.805,0.688,0.63,0.98,1.04,0.755,0.528,0.427,0.785,0.95,0.771,0.814,0.873,0.86,0.953,0.787,0.522,0.475
NCI-H358,0.722,0.788,0.628,0.756,0.611,0.538,0.455,0.364,0.241,0.244,0.19,0.183,0.22,0.234,0.232,0.513,0.47,0.388,0.15,0.128
LU99A,0.293,0.288,0.282,0.282,0.294,0.399,0.35,0.277,0.215,0.171,,1.03,1,0.839,1.09,0.464,0.448,0.515,0.366,0.288
H3255,0.556,0.58,0.559,0.483,0.388,0.899,0.856,0.832,0.686,0.372,0.611,0.511,0.662,0.577,0.425,0.826,0.789,0.777,0.828,0.37
NCI-H1734,0.602,0.652,0.55,0.556,0.534,0.524,0.482,0.482,0.406,0.386,0.492,0.53,0.527,0.584,0.574,0.721,0.71,0.703,0.529,0.496
NCI-H650,0.519,0.509,0.511,0.419,0.391,0.75,0.896,1.01,0.606,0.4,0.333,0.334,0.314,0.306,0.321,0.413,0.564,0.381,0.384,0.287
NCI-H1915,0.662,0.653,0.573,0.49,0.381,0.693,0.616,0.509,0.21,0.212,0.257,0.294,0.261,0.262,0.264,0.539,0.483,0.446,0.374,0.119
NCI-H1651,0.668,0.629,0.543,0.687,0.572,0.475,0.384,0.382,0.374,0.333,0.637,0.669,0.606,0.604,0.51,0.546,0.433,0.481,0.465,0.359
HOP-62,0.768,0.96,0.875,0.721,0.608,0.481,0.585,0.626,0.268,0.167,0.207,0.286,0.165,0.223,0.285,0.738,0.606,0.642,0.293,0.132
LCLC-103H,0.43,0.462,0.474,0.463,0.377,0.695,0.666,0.628,0.523,0.331,0.757,0.781,0.726,0.727,0.684,0.852,0.787,0.694,0.582,0.293
NCI-H3122,0.905,0.254,1.05,,1.09,0.991,0.982,0.951,0.876,0.643,0.42,0.392,0.585,0.469,0.42,1.04,0.949,0.986,1.02,0.614
NCI-H1395,0.593,0.69,0.736,0.677,0.62,0.401,0.39,0.358,0.356,0.356,0.674,0.712,0.632,,0.642,0.722,0.762,0.515,0.291,0.387
PC-14,0.815,0.824,0.622,0.645,0.579,0.405,0.468,0.34,0.401,0.112,0.247,0.22,0.218,0.266,0.222,0.653,0.699,0.562,0.318,0.0563
BEN,0.548,0.317,0.294,0.288,0.403,0.747,0.558,0.483,0.402,0.43,0.693,0.751,0.776,0.728,0.656,0.577,0.445,0.417,0.371,0.368
EPLC-272H,0.277,,0.278,0.293,0.265,0.222,0.245,0.173,0.125,0.147,0.326,0.381,0.329,0.373,0.295,0.539,0.401,0.335,0.276,0.162
